Target: T1, Lysosomal acid glucosylceramidase (Homo sapiens, UniProt P04062)
T1 sequence (P04062 whole entry): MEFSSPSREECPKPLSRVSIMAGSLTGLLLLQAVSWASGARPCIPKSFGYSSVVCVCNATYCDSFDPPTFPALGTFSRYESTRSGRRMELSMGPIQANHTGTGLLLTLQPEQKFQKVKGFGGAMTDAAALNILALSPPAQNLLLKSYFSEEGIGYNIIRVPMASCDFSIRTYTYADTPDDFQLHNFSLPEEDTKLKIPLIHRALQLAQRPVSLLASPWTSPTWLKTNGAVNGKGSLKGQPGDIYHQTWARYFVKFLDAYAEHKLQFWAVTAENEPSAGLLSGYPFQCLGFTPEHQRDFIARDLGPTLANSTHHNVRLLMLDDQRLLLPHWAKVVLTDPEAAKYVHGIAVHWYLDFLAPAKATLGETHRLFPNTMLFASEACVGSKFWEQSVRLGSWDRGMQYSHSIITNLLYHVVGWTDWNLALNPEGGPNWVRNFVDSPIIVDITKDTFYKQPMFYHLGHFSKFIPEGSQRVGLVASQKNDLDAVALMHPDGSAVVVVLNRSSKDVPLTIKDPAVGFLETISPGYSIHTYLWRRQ
Experiment: In Vitro Enzyme Inhibition
Conditions: pH 5.5; 37 °C

Point of comparison: `CCCCCCCC[C@H]1N[C@H](CO)[C@@H](O)[C@H](O)[C@H]1O` [(2R,3R,4R,5S,6R)-2-(hydroxymethyl)-6-octylpiperidine-3,4,5-triol], IC50 0.5 µM. Against it:
- CCC[C@H]1N[C@H](CO)[C@@H](O)[C@H](O)[C@H]1O [(2R,3R,4R,5S,6R)-2-(hydroxymethyl)-6-propylpiperidine-3,4,5-triol] — 800-fold higher, 400 µM
- CCCCCCN1C[C@H](O)[C@@H](O)[C@H](O)[C@H]1CO [(2R,3R,4R,5S)-1-hexyl-2-(hydroxymethyl)piperidine-3,4,5-triol] — 26-fold higher, 13 µM
- CN1C[C@H](O)[C@@H](O)[C@H](O)[C@H]1CO [(2R,3R,4R,5S)-2-(hydroxymethyl)-1-methylpiperidine-3,4,5-triol] — 300-fold higher, 150 µM
- CCCCCC[C@H]1N[C@H](CO)[C@@H](O)[C@H](O)[C@H]1O [(2R,3S,4R,5R,6R)-2-hexyl-6-(hydroxymethyl)piperidine-3,4,5-triol] — 8.4-fold higher, 4.2 µM
- C[C@H]1N[C@H](CO)[C@@H](O)[C@H](O)[C@H]1O [(2R,3R,4R,5S,6R)-2-(hydroxymethyl)-6-methylpiperidine-3,4,5-triol] — 1800-fold higher, 900 µM
- CCCCCCCCC[C@H]1N[C@H](CO)[C@@H](O)[C@H](O)[C@H]1O [CN-DNJ] — 1.9-fold lower, 0.27 µM
- CCCN1C[C@H](O)[C@@H](O)[C@H](O)[C@H]1CO [(2R,3R,4R,5S)-2-(hydroxymethyl)-1-propylpiperidine-3,4,5-triol] — 1400-fold higher, 700 µM
- CCCCCCCCN1C[C@H](O)[C@@H](O)[C@H](O)[C@H]1CO [(2R,3R,4R,5S)-2-(hydroxymethyl)-1-octylpiperidine-3,4,5-triol] — 1.6-fold higher, 0.82 µM

Point of comparison: `CCCCCC[C@H]1N[C@H](CO)[C@@H](O)[C@H](O)[C@H]1O` [(2R,3S,4R,5R,6R)-2-hexyl-6-(hydroxymethyl)piperidine-3,4,5-triol], Ki 2.3 µM. Against it:
- CCCCCCN1C[C@H](O)[C@@H](O)[C@H](O)[C@H]1CO [(2R,3R,4R,5S)-1-hexyl-2-(hydroxymethyl)piperidine-3,4,5-triol] — 2.4-fold higher, 5.5 µM
- CCCCCCCC[C@H]1N[C@H](CO)[C@@H](O)[C@H](O)[C@H]1O [(2R,3R,4R,5S,6R)-2-(hydroxymethyl)-6-octylpiperidine-3,4,5-triol] — 8.2-fold lower, 0.28 µM
- CCCCCCCCC[C@H]1N[C@H](CO)[C@@H](O)[C@H](O)[C@H]1O [CN-DNJ] — 11-fold lower, 0.2 µM
- CCCC[C@H]1N[C@H](CO)[C@@H](O)[C@H](O)[C@H]1O [(2R,3S,4R,5R,6R)-2-butyl-6-(hydroxymethyl)piperidine-3,4,5-triol] — 48-fold higher, 110 µM
- CCCCCCCCN1C[C@H](O)[C@@H](O)[C@H](O)[C@H]1CO [(2R,3R,4R,5S)-2-(hydroxymethyl)-1-octylpiperidine-3,4,5-triol] — 5.5-fold lower, 0.42 µM
